Test systems include DMS 114 small cell lung; DMS 273 small cell lung; BT-549 breast; M19-MEL melanoma; MCF7 breast; T-47D breast; LXFL 529 NSCLC; PC-3 prostate; NCI/ADR-RES ovarian; HOP-18 NSCLC; MDA-MB-435.
Holding throughout (experiment): inhibition of tumour cell growth, NCI panel, 48 h

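Five compound concentrations were applied to cells in 96-well plates for 48 hours; endpoints were derived by simple linear interpolation of the resulting dose-response curve. At the GI50, growth is halved. At the TGI there is no net growth.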 A value given as a limit tells only on which side of the number the result lay.

With `C=C(CCCCCCCCC)CC(=O)SCCNC(=O)CCNC(=O)C(O)C(C)(C)COP(=O)(O)OP(=O)(O)OCC1OC(n2cnc3c(N)ncnc32)C(O)C1OP(=O)(O)O` (stereo unspecified), the TGI in the assay with DMS 114 small cell lung was more than 100 µM; in the assay on DMS 273 small cell lung, 45.2 µM; in the assay with BT-549 breast it was more than 100 µM; with M19-MEL melanoma it was 87.8 µM; in the assay with MCF7 breast, more than 100 µM; in the assay on T-47D breast, more than 100 µM. The TGI is more than 100 µM in the assay on LXFL 529 NSCLC; more than 100 µM in the assay with PC-3 prostate; more than 100 µM in the assay with NCI/ADR-RES ovarian; more than 100 µM in the assay with HOP-18 NSCLC; 67.7 µM with MDA-MB-435.

`C=CC1[C@H]2COC(C)(C)O[C@@H]2CC(=O)C1(C)C` (stereo partly specified): the TGI in the assay on DMS 114 small cell lung, in the assay on DMS 273 small cell lung, in the assay with M19-MEL melanoma, in the assay on LXFL 529 NSCLC and in the assay on HOP-18 NSCLC was more than 100 µM throughout.

For `CC(=O)NNc1nc(C)c(C(=O)NNC(=O)C(=O)Nc2c(C)cccc2C)s1`, the TGI is more than 100 µM in the assay on DMS 273 small cell lung, 79.7 µM with M19-MEL melanoma, more than 100 µM in the assay with LXFL 529 NSCLC and more than 100 µM in the assay on HOP-18 NSCLC.

With `O=C(c1ccc(Cl)cc1)c1ccc(OCCCCCCCCCCOc2ccc(C(=O)c3ccc(Cl)cc3)cc2)cc1`, the TGI with DMS 114 small cell lung and in the assay with DMS 273 small cell lung was more than 100 µM throughout.

As to `COC(=O)C(C(=O)C(=O)Nc1ccc(C(F)(F)F)cc1[N+](=O)[O-])c1csc(-n2nc(-c3ccccc3)cc2-c2ccccc2)n1` (stereo unspecified), the TGI in the assay on DMS 114 small cell lung, in the assay with DMS 273 small cell lung, with M19-MEL melanoma and in the assay with LXFL 529 NSCLC was more than 100 µM throughout.

`OCCCOC(c1ccccc1)(c1ccccc1)c1ccccc1`: the TGI in the assay on DMS 114 small cell lung, in the assay on DMS 273 small cell lung, with M19-MEL melanoma and in the assay on LXFL 529 NSCLC was more than 100 µM each time.

For `CC1OC(OCC2OC(Oc3c(-c4ccc(O)cc4)oc4cc(O)cc(O)c4c3=O)C(OC3OC(C)C(O)C(O)C3O)C(O)C2O)C(O)C(O)C1O` (stereo unspecified), the TGI in the assay with DMS 114 small cell lung is more than 77.4 µM; in the assay on DMS 273 small cell lung it was more than 100 µM; in the assay on M19-MEL melanoma it was more than 100 µM; in the assay on LXFL 529 NSCLC, more than 100 µM; with HOP-18 NSCLC, more than 100 µM.

As to `CC(=O)Nc1ccc(C(=O)NN2C(=O)C(Cl)C2c2ccc([N+](=O)[O-])cc2)cc1` (stereo unspecified), the TGI in the assay on DMS 273 small cell lung, in the assay with M19-MEL melanoma and with LXFL 529 NSCLC was more than 100 µM in each case.

Consider `COC1=CC(=O)C2C(C1=O)[C@@H]1c3ccccc3C[C@H]21` (stereo partly specified), for which the TGI with DMS 273 small cell lung and in the assay on M19-MEL melanoma was more than 100 µM in each case.

As to `COC(=O)C1C(O)CC(c2ccccn2)N(Cc2ccccc2)C1c1ccccn1` (stereo unspecified), the TGI in the assay with DMS 114 small cell lung, with DMS 273 small cell lung, with M19-MEL melanoma, in the assay with LXFL 529 NSCLC and in the assay with HOP-18 NSCLC was more than 100 µM each time.

Take `CCOC(=O)/C(O)=C/c1cc(OC)cc(=O)o1`: the TGI with DMS 114 small cell lung, in the assay on DMS 273 small cell lung, in the assay on M19-MEL melanoma, in the assay on LXFL 529 NSCLC and in the assay with HOP-18 NSCLC was more than 100 µM in each case.

Take `O=C1C=CC=CC2CC=C[C@@H](O)C12` (stereo partly specified): the TGI in the assay with DMS 114 small cell lung was 38.7 µM; in the assay with DMS 273 small cell lung, 51.5 µM; in the assay on M19-MEL melanoma, 34.2 µM; in the assay with LXFL 529 NSCLC, 36.2 µM.

For the compound `COc1ccccc1/C=C1\CCC(CCN(C)C)(C2=CCCC2)C1=O` (stereo unspecified), the TGI in the assay with DMS 114 small cell lung was found to be 34.2 µM; with DMS 273 small cell lung it was 32.1 µM; in the assay with M19-MEL melanoma, 31.7 µM; with LXFL 529 NSCLC, 29.6 µM; with HOP-18 NSCLC it was 85.3 µM.

`CC(C)C1(O)C(c2ccccc2)=C(c2ccccc2)C(c2ccccc2)=C1c1ccccc1`: the TGI in the assay on DMS 114 small cell lung is 11.8 µM; in the assay on DMS 273 small cell lung, 37.1 µM; in the assay on LXFL 529 NSCLC it was 51.9 µM; with HOP-18 NSCLC, 52.7 µM.

In the case of `Nc1nc2c(c(=O)[nH]1)NC(CO)CN2` (stereo unspecified), the TGI in the assay with DMS 114 small cell lung, in the assay with DMS 273 small cell lung, with M19-MEL melanoma and with HOP-18 NSCLC was more than 100 µM in each case.

With `CCCCc1c2c(nc3c1CCc1cc4cc5c(nc4nc1-3)-c1nc3c(c(CCCC)c1CC5)CCCC3)CCCC2`, the TGI with DMS 114 small cell lung was 88 µM; in the assay on DMS 273 small cell lung, more than 100 µM; with M19-MEL melanoma, more than 100 µM; in the assay with LXFL 529 NSCLC, more than 100 µM.

For the compound `CCc1cccc(C(C)C)c1NC(=O)C(=O)CC(=O)c1c(C)n([O-])c2ccccc2[n+]1=O`, the TGI in the assay on DMS 114 small cell lung, with M19-MEL melanoma and with LXFL 529 NSCLC was more than 100 µM throughout.

Consider `Cc1ccc(-c2cc(-c3ccco3)c(C#N)c(=O)[nH]2)cc1`, for which the TGI with DMS 273 small cell lung, in the assay with M19-MEL melanoma, in the assay on LXFL 529 NSCLC and in the assay on HOP-18 NSCLC was more than 100 µM in each case.

`C1C[OH+]CC[OH+]CCNCC[OH+]CC[OH+]CCN1.[Cl-].[Pt+4]`: in the assay on LXFL 529 NSCLC, the GI50 was 63.7 µM and the TGI is more than 100 µM. In the assay with HOP-18 NSCLC, the GI50 is more than 100 µM and the TGI is more than 100 µM.

For the compound `O=C(c1ccccc1)C1CCCCN1C(=O)c1ccccc1` (stereo unspecified), the TGI with DMS 114 small cell lung, in the assay with DMS 273 small cell lung, with M19-MEL melanoma, in the assay with LXFL 529 NSCLC and in the assay with HOP-18 NSCLC was more than 100 µM in each case.

For the compound `NCCCOCC(=O)O`, the TGI in the assay with DMS 114 small cell lung, in the assay on DMS 273 small cell lung, in the assay on M19-MEL melanoma and in the assay on LXFL 529 NSCLC was more than 100 µM in each case.

`CC(=O)N[C@@H]1C(O)CN2C(=O)C(=O)O[C@H](C(O)CO)[C@@H]12` (stereo partly specified): the TGI with DMS 114 small cell lung, in the assay with DMS 273 small cell lung, in the assay with M19-MEL melanoma, in the assay with LXFL 529 NSCLC and in the assay on HOP-18 NSCLC was more than 100 µM throughout.
